Experimental data: patent US12649751B2 (Arcus Biosciences, Inc., priority 2022, dated 2026)
Read-outs that look alike come from different tables or passages of the source.

Experiments:
HPK1 = HPK1 (Homo sapiens, UniProt Q92918); assay: HPK1 Biochemical Assay (ADP-Glo luminescence; low ATP 10 μM or high ATP 200 μM)
[1] = system: p-SLP-76 (Ser376) in Jurkat cells; assay: pSLP76 Cellular Assay (AlphaLISA SureFire Ultra p-SLP-76 (Ser376), anti-CD3 activated Jurkat cells); assay type: cell-based; conditions: Homo sapiens, read-out: Cellular Potency
Experimental: pSLP76 cellular assay was performed using Jurkat cells and the AlphaLISA SureFire Ultra p-SLP-76 (Ser376) Assay Kit (PerkinElmer). Dose-response assays were performed in Greiner® Low Volume 384-well assay plates containing 200 nL of 22 serial 2-fold compound dilutions using Bravo and Echo. Jurkat cells were grown in RPMI-1640 supplemented with 10% FBS and PSG. The day prior to the assay, the cells were collected, and serum starved overnight in Opti-MEM. The day of the assay, the cells were collected and resuspended in HBSS. 100,000 cells/well were added to the compound plates and after a short spin, the plates were incubated at 37° C. for 1 h. The cells were activated by adding 10 μL of 0.025 mg/ml anti-CD3. Plates were then incubated at 37° C. for 45 min. Stimulation was terminated by adding […], followed by a brief centrifugation and 60 min of shaking at 300 rpm. Cell lysates (10 μL) were transferred to 384-well White Opti-plates and the samples were processed according to the manufacturer's directions. The fluorescence signal from pSLP76 was measured at 570 nm using Envision plate reader. IC50 values were determined by fitting the data to a standard 4-parameter logistic equation. The results are summarized in the Cellular Potency columns in Tables 4 and 5 below (Cellular Potency).

[2] = HPK1 ADP-Glo assay, high ATP (200 μM ATP, 5 nM HPK1), read-out: Biochemical Potency (high ATP)
[3] = pSLP76 (Ser376) AlphaLISA, anti-CD3 activated Jurkat cells
[4] = 2 nM HPK1, 10 μM ATP, read-out: Biochemical Potency (low ATP)
[5] = Jurkat cells, anti-CD3 stimulation, pSLP76

HPK1, sequence (Q92918 whole entry, species assumed): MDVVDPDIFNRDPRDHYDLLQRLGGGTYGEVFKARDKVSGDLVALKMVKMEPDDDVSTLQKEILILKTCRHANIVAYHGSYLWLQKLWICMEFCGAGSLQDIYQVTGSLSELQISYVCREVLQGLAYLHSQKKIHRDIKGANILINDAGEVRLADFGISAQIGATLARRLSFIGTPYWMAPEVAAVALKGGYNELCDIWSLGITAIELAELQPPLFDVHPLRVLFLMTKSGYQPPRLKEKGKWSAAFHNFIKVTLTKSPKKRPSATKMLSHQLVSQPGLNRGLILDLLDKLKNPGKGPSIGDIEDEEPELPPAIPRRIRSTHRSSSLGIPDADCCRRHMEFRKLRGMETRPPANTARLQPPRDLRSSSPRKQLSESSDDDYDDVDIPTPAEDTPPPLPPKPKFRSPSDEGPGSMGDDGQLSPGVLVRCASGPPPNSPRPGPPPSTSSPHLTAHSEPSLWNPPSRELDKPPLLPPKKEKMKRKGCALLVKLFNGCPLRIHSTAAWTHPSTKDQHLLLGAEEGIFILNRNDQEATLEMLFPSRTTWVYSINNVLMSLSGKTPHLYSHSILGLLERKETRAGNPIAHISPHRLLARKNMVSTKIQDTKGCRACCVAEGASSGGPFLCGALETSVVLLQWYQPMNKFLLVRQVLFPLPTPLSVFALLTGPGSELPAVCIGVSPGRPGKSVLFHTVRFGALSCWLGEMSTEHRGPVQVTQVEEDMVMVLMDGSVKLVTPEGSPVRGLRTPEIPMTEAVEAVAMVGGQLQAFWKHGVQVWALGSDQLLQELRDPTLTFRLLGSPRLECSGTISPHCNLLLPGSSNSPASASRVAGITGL

Structure (SMILES)	IC50 (HPK1; [2]) [nM]	IC50 [1, 3] [nM]	IC50 (HPK1; [4]) [nM]	IC50 [1, 5] [nM]	IC50 (HPK1; HPK1 ADP-Glo assay, low ATP (10 μM ATP, 2 nM HPK1), read-out: Biochemical Potency (low ATP)) [nM]
Cc1cc(Nc2cc3nc(-c4nncn4C)sc3cn2)nc(N2C[C@@H]3C[C@H]2CN3CCO)n1 [Example 299, 2-[(1S,4S)-5-(4-methyl-6-{[2-(4-methyl-4H-1,2,4-triazol-3-yl)-[1,3]thiazolo[5,4-c]pyridin-6-yl]amino}pyrimidin-2-yl)-2,5-diazabicyclo[2.2.1]heptan-2-yl]ethan-1-ol]	< 100	100 to 1000			
CO[C@@H]1CCN(c2cc(-c3nc4cc(Nc5cc(C)nc(N6C[C@@H]7C[C@H]6CN7CCO)n5)ncc4s3)ccn2)C1 [Example 453]	< 100	100 to 1000			
Cc1cc(Nc2cc3nc(-c4cccc(N5CCOCC5)c4)sc3cn2)nc(N2C[C@@H]3C[C@H]2CN3CCO)n1 [Example 349]	< 100	100 to 1000			
COC1CCN(c2cc(-c3nc4cc(Nc5cc(C)nc(N6C[C@@H]7C[C@H]6CN7C)n5)ncc4s3)ccn2)CC1 [Example 456]	< 100	1000 to 5000			
Cc1cccnc1-c1nc2cc(Nc3cccc(N4C[C@H](N)C[C@H]4CO)n3)ncc2s1 [Example 70, [(2S,4R)-4-Amino-1-(6-{[2-(3-methylpyridin-2-yl)-[1,3]thiazolo[5,4-c]pyridin-6-yl]amino}pyridin-2-yl)pyrrolidin-2-yl]methanol]			< 100	100 to 1000	
Cc1cccc(F)c1-c1nc2cc(Nc3ccc(N4CCOCC4)c(CN(C)C)n3)ncc2s1 [Example 14, 6-[(Dimethylamino)methyl]-N-[2-(2-fluoro-6-methylphenyl)-[1,3]thiazolo[5,4-c]pyridin-6-yl]-5-(morpholin-4-yl)pyridin-2-amine]			< 100	100 to 1000	
CCN(CC)S(=O)(=O)c1cc(C)cc(-c2nc3cc(Nc4cc(C)nc(N5C[C@@H]6C[C@H]5CN6CCO)n4)ncc3s2)c1 [Example 343]	< 100	1000 to 5000			
CCN1C[C@@H]2C[C@H]1CN2c1nc(C)cc(Nc2cc3nc(-c4cccc(C(=O)N(C)CC5CCOCC5)c4)sc3cn2)n1 [Example 523]	< 100	100 to 1000			
CCN1C[C@@H]2C[C@H]1CN2c1nc(C)cc(Nc2cc3nc(-c4cncc(N[C@H](C)c5ccccc5)c4)sc3cn2)n1 [Example 471]	< 100	100 to 1000			
CN(C)Cc1nc(Nc2cccc(F)c2-c2nc3cc(Cl)ncc3s2)ccc1N1CCOCC1 [Example 19, N-(2-{6-Chloro-[1,3]thiazolo[5,4-c]pyridin-2-yl}-3-fluorophenyl)-6-[(dimethylamino)methyl]-5-(morpholin-4-yl)pyridin-2-amine]			> 5000	> 5000	
Cc1cc(Nc2cc3nc(-c4c(C)cccc4F)sc3cn2)nc(O[C@H]2CCNC2)c1 [Example 178, N-[2-(2-Fluoro-6-methylphenyl)-[1,3]thiazolo[5,4-c]pyridin-6-yl]-4-methyl-6-[(3S)-pyrrolidin-3-yloxy]pyridin-2-amine]			< 100	100 to 1000	
Cc1ccc(Nc2cc3nc(-c4ncccc4C)sc3cn2)nc1CN1CCC[C@@H]1CO [Example 49, [(2R)-1-[(3-Methyl-6-{[2-(3-methylpyridin-2-yl)-[1,3]thiazolo[5,4-c]pyridin-6-yl]amino}pyridin-2-yl)methyl]pyrrolidin-2-yl]methanol]			< 100	1000 to 5000	
Cc1cccnc1-c1nc2cc(Nc3cccc(N4C[C@@H]5C[C@H]4CN5C(C)C)n3)ncc2s1 [Example 116, N-[2-(3-Methylpyridin-2-yl)-[1,3]thiazolo[5,4-c]pyridin-6-yl]-6-[(1S,4S)-5-(propan-2-yl)-2,5-diazabicyclo[2.2.1]heptan-2-yl]pyridin-2-amine]			< 100	1000 to 5000	
Cc1cccc(F)c1-c1nc2cc(Nc3ccc(N4CCC(O)CC4)c(CN(C)C)n3)ncc2s1 [Example 18, 1-{2-[(Dimethylamino)methyl]-6-{[2-(2-fluoro-6-methylphenyl)-[1,3]thiazolo[5,4-c]pyridin-6-yl]amino}pyridin-3-yl}piperidin-4-ol]			< 100	100 to 1000	
Cc1cc(Nc2cc3nc(-c4cnn(C)c4)sc3cn2)nc(N2C[C@@H]3C[C@H]2CN3CCO)n1 [Example 301, 2-[(1S,4S)-5-(4-Methyl-6-{[2-(1-methyl-1H-pyrazol-4-yl)-[1,3]thiazolo[5,4-c]pyridin-6-yl]amino}pyrimidin-2-yl)-2,5-diazabicyclo[2.2.1]heptan-2-yl]ethan-1-ol]	< 100	< 100			
Cc1cc(Nc2cc3nc(-c4cccc(C(C)(C)C(=O)N(C)C)c4)sc3cn2)nc(N2C[C@@H]3C[C@H]2CN3C)n1 [Example 394]	< 100	100 to 1000			
c1cnn(-c2nc3cc(Nc4cnc(C5CCOCC5)c(N5C[C@@H]6C[C@H]5CN6)n4)ncc3s2)c1 [Example 508]	< 100	< 100			
Cc1cc(Nc2cc3nc(-c4cccc(C(=O)N(C)C)c4)sc3cn2)nc(N2C[C@@H]3C[C@H]2CN3CCN(C)S(C)(=O)=O)n1 [Example 498]	100 to 1000	1000 to 5000			
Cc1cccnc1-c1nc2cc(Nc3ccc(C4CCOCC4)c(CN4CC[C@H](F)C4)n3)ncc2s1 [Example 214, 6-{[(3S)-3-Fluoropyrrolidin-1-yl]methyl}-N-[2-(3-methylpyridin-2-yl)-[1,3]thiazolo[5,4-c]pyridin-6-yl]-5-(oxan-4-yl)pyridin-2-amine]			< 100	100 to 1000	
Cc1cccnc1-c1nc2cc(Nc3cccc(C4(F)CC5CC4CN5)n3)ncc2s1 (centres unmarked) [Example 315, {6-(5-fluoro-2-azabicyclo[2.2.1]hept-5-yl)-2-pyridyl}[2-(3-methyl-2-pyridyl)-3-thia-1,5-diaza-6-indenyl]amine]	< 100	1000 to 5000			< 100
Cc1cc(Nc2cc3nc(-c4cnn(CS(C)(=O)=O)c4)sc3cn2)nc(N2C[C@@H]3C[C@H]2CN3C)n1 [Example 378]	< 100	100 to 1000			
CCN1C[C@@H]2C[C@H]1CN2c1nc(C)cc(Nc2cc3nc(-c4cccc(C(=O)N[C@H](C)c5ccccc5)c4)sc3cn2)n1 [Example 516]	< 100	100 to 1000			
Cc1cc(Nc2cc3nc(-c4cccc(C(=O)N(C)C)c4)sc3cn2)nc(N2C[C@@H]3C[C@H]2CN3[C@H]2CCOC2)n1 [Example 487]	< 100	< 100			
CO[C@H]1CCN(c2cc(-c3nc4cc(Nc5cc(C)nc(N6C[C@@H]7C[C@H]6CN7CCO)n5)ncc4s3)ccn2)C1 [Example 454]	< 100	100 to 1000			
CNC(=O)c1cccc(-c2nc3cc(Nc4cccc(N5C[C@@H]6C[C@H]5CN6C)n4)ncc3s2)c1 [Example 135, N-Methyl-3-[6-({6-[(1S,4S)-5-methyl-2,5-diazabicyclo[2.2.1]heptan-2-yl]pyridin-2-yl}amino)-[1,3]thiazolo[5,4-c]pyridin-2-yl]benzamide]			< 100	1000 to 5000	
CCN1C[C@@H]2C[C@H]1CN2c1nc(C)cc(Nc2cc3nc(-c4cnn(CC5CC5)c4)sc3cn2)n1 [Example 383]	< 100	< 100			
